Test results: patent US11285226B2, “Aryl ethene derivative and pharmaceutical composition containing same as active ingredient” (priority 2016, dated 2022)
Read-outs that look alike come from different tables or passages of the source.

Tests used:
[1] = type: in vitro ADME, human; conditions: 1 μM, 30 minutes, 37° C.
Protocol: 2) Microsomal Stability Evaluation
(§2) Four liver microsomes (Human, Dog, Rat, Mouse 0.5 mg/ml) with a 0.1 M phosphate buffer solution (pH 7.4), and the arylethene derivative of the present invention were added to a concentration of 1 μM, culturing was performed at 37° C. for 5 minutes in advance, a NADPH regeneration system solution was added thereto, and culturing was performed at 37° C. for 30 minutes. Thereafter, in order to complete the reaction, an acetonitrile solution containing an internal standard material (chlorpropamide) was added thereto, centrifugation (14,000 rpm, 4° C.) was performed for 5 minutes, and a supernatant was injected into a LC-MS/MS system to analyze the substrate drug, thereby evaluating metabolism stability to the arylethene derivative of the present invention.

[2] = type: in vitro ADME, dog; conditions: 1 μM, 30 minutes, 37° C.
Protocol: 2) Microsomal Stability Evaluation
as §2

CYP2C9 = CYP2C9 (Homo sapiens (Human), UniProt P11712); assay: Cytochrome P450 activity inhibition, CYP2C9; type: in vitro ADME; conditions: 10 μM, human liver microsomes
Source text: (§1) 1) Cytochrome P450 (CYP450) Activity Inhibition Evaluation

CYP1A2 = CYP1A2 (Homo sapiens (Human), UniProt P05177); assay: Cytochrome P450 activity inhibition, CYP1A2; type: in vitro ADME; conditions: 10 μM, human liver microsomes
Source text: as §1

CYP2C19 = CYP2C19 (Homo sapiens (Human), UniProt P33261); assay: Cytochrome P450 activity inhibition, CYP2C19; type: in vitro ADME; conditions: 10 μM, human liver microsomes
Source text: as §1

[3] = type: in vitro ADME, rat; conditions: 1 μM, 30 minutes, 37° C.
Protocol: 2) Microsomal Stability Evaluation
as §2

[4] = type: in vitro ADME; conditions: PBS pH 7.4, 25° C., 5 hours
Protocol: 3) Parallel Artificial Membrane Permeability Assay (PAMPA) Evaluation
PAMPA is a method which has been developed for testing cell membrane permeability of a material in a test tube, and has been performed using a lipid tri-layer PVDF membrane available from Corning Gentest (NY, US), the used reagents were all purchased from Sigma (MO, US). First, a test material is diluted in PBS (pH 7.4) to a final concentration of 10 mM, 300 mL of the solution is added to the bottom well of a 96-transwell equipped with a PVDF membrane, and 200 mL of PBS is added to the upper well. Then, a plate is reacted at 25° C. for 5 hours, 20 mL of the solution in each well is transferred to a new container, and 80 mL of acetonitrile containing an internal standard material (4 mM chloropropamide) is added thereto. A concentration of the material in the solution is analyzed using LC-MS/MS (ThermoFisher Scientific, MO, US), and the transmittance of the material is calculated according to the equation reported in the reference document. • Reference document: A novel design of artificial membrane for improving the PAMPA model.

[5] = type: in vivo; conditions: rat; for BA: PO 10 mg/kg vs IV 1 mg/kg
Protocol: An oral administration group fasts the day before.
Blood of each animal is collected at 0 hour.
Into a tail vein of an intravenous administration group (IV), a drug is injected at a dose of 1 mg/kg (syringe).
To an oral administration group (PO), a drug is orally administered at a dose of 10 mg/kg (oral zondec)
After administration, blood of the intravenous administration group was collected through a jugular vein 8 times at 0.08, 0.25, 0.5, 1, 2, 4, 6, and 8 hours. One collected blood amount is 400 to 500 ul.
After administration, blood of the oral administration group was collected through a jugular vein 6 times at 0.25, 0.5, 1, 4, 6 and 8 hours. One collected blood amount is 400 to 500 ul.
Supernatant plasma is collected by a centrifuge.
The supernatant plasma was injected into a LC-MS/MS system and the drug is analyzed.

CYP3A4 = CYP3A4 (Homo sapiens (Human), UniProt P08684); assay: Cytochrome P450 activity inhibition, CYP3A4; type: in vitro ADME; conditions: 10 μM, human liver microsomes
Protocol: Thereafter, in order to complete the reaction, an acetonitrile solution containing an internal standard material (Terfenadine) was added thereto, centrifugation (14,000 rpm, 4° C.) was performed for 5 minutes, and a supernatant was injected into a LC-MS/MS system to analyze the metabolites of the substrate drug, thereby evaluating drug metabolism enzyme inhibition by the arylethene derivative of the present invention.

ERRγ = type: cell-based; conditions: for Functional Assay, Cpds/Ref 5182: activity relative to reference compound GSK5182; for Functional Assay at 10 μM (% of control), Cpds: AD293, 24 hours
Protocol: AD293 was cultured in a 24-well plate for 24 hours, using a DMEM High glucose culture medium (Hyclone, USA) to which 0.5% FBS was added at a concentration of 9×10^4/well. The culture medium was replaced with a DMEM High glucose culture medium to which 10% FBS was added, treatment was performed with a mixture of a TransIT-LT1 transfection reagent (Minis, USA) and pCMX-Gal4-ERRγ, pFR-luciferase reporter plasmid, pCMV-β-gal, and culturing was performed for 24 hours. Thereafter, a luciferase activity assay and a β-gal assay were performed, respectively, with a lysate obtained after treatment with the arylethene derivative of the present invention for 24 hours. All results were derived from three or more independent repetitive experiments.

CAL-62 cells = assay: 125I uptake assay in anaplastic thyroid cancer cells; type: cell-based
pERK1/2 in CAL62 cells = assay: Western blot, phosphorylated ERK1/2 (MAP kinase); type: cell-based; conditions: selective MEK inhibitor
CYP2D6 = CYP2D6 (Homo sapiens (Human), UniProt P10635); assay: Cytochrome P450 activity inhibition, CYP2D6; type: in vitro ADME; conditions: 10 μM, human liver microsomes
Source text: as §1

ATC mouse tumor model = conditions: cited from earlier work
[6] = target: ER alpha ligand-binding domain (LBD) (Homo sapiens (Human), UniProt P03372); conditions: beta-estradiol 4 nM as agonist; read-out: Binding Assay, IC50 ERα
Protocol: (§3) The arylethene derivative of the present invention was sequentially added to a 384 well plate from a concentration of 10 μM to a final concentration of two-fold dilution. […] After all reagents were added, a reaction was carried out with gentle shaking at 20° C. for 1 hour, and after the reaction, a binding activity was measured by a TR-FRET method.

ERR alpha LBD = ERR alpha LBD (Homo sapiens (Human), UniProt P11474); conditions: read-out: Binding Assay, IC50 ERRα
Protocol: as §3

[7] = type: in vitro ADME, mouse; conditions: 1 μM, 30 minutes, 37° C.
Protocol: 2) Microsomal Stability Evaluation
as §2

Sequence of CYP1A2 (P05177 whole entry): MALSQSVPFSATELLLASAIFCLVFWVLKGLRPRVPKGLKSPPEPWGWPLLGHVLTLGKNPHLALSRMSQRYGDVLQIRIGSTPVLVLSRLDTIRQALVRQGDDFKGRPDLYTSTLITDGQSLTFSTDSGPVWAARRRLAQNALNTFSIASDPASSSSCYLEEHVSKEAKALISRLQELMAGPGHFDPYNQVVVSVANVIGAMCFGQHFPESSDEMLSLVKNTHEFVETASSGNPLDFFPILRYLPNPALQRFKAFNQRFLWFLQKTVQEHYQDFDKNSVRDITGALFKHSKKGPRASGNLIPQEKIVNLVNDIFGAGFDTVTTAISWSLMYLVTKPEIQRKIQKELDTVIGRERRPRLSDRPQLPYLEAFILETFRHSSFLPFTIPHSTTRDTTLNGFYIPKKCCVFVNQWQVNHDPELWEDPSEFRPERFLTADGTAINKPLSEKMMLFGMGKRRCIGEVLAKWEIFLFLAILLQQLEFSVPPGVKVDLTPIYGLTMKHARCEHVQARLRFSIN
Sequence of CYP2C19 (P33261 whole entry): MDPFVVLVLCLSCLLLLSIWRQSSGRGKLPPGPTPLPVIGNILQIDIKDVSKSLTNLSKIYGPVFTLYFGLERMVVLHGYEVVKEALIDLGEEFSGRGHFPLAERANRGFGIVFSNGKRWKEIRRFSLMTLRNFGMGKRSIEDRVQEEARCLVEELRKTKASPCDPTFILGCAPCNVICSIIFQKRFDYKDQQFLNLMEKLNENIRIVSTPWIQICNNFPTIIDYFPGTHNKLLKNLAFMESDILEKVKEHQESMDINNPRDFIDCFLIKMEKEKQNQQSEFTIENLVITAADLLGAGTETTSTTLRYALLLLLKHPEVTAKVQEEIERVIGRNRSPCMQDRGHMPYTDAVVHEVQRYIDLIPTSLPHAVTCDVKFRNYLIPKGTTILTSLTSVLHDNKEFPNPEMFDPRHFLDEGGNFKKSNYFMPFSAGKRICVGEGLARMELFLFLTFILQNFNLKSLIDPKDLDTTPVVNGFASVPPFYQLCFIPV
Sequence of CYP2C9 (P11712 whole entry): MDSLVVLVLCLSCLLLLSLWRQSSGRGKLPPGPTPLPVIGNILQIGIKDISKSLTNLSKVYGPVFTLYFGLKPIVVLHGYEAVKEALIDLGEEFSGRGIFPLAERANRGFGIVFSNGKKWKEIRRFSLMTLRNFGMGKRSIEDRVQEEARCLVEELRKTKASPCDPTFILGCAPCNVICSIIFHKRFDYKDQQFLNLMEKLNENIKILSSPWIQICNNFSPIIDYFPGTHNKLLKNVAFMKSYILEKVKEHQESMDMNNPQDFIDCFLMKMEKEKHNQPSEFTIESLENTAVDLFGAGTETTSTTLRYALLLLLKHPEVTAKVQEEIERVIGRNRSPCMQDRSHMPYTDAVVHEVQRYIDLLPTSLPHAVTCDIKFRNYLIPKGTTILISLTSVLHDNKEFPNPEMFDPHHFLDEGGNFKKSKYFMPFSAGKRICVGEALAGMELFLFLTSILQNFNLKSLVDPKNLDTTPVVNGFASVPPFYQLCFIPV
Sequence of ERR alpha LBD (P11474 193-421, species assumed): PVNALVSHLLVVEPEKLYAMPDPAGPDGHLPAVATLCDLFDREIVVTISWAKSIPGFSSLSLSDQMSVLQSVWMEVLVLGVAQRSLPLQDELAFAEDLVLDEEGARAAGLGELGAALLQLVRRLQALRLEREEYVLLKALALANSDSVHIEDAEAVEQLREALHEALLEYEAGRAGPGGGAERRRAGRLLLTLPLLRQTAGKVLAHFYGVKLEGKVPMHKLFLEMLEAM
Sequence of CYP2D6 (P10635 whole entry): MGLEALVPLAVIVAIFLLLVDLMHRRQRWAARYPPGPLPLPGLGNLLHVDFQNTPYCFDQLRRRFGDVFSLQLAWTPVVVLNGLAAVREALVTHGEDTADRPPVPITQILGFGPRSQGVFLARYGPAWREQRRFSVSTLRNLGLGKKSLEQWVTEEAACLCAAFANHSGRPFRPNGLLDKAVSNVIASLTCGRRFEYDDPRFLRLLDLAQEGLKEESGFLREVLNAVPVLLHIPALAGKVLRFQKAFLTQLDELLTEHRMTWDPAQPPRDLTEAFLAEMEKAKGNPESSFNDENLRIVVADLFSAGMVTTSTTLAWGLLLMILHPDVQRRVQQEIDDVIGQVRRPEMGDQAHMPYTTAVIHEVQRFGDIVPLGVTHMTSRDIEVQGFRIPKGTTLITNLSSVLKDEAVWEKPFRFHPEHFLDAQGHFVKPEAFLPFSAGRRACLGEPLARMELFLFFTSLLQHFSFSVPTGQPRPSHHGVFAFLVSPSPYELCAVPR
Sequence of CYP3A4 (P08684 whole entry): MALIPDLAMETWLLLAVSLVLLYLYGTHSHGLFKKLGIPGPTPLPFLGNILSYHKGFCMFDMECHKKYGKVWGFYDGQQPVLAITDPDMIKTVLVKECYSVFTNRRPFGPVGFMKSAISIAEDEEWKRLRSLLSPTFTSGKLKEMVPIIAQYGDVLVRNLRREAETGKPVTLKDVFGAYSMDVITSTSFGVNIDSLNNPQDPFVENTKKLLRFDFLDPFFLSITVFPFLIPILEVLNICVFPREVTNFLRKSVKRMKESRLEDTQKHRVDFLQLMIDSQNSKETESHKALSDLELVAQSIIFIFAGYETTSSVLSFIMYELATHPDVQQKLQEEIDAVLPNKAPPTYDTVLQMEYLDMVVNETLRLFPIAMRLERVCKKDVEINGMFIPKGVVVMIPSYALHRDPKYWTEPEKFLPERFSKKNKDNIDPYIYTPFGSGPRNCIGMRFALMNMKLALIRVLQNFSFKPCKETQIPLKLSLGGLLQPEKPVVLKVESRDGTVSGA
Sequence of ER alpha ligand-binding domain (LBD) (P03372 whole entry, looked up, the tested form may be a part): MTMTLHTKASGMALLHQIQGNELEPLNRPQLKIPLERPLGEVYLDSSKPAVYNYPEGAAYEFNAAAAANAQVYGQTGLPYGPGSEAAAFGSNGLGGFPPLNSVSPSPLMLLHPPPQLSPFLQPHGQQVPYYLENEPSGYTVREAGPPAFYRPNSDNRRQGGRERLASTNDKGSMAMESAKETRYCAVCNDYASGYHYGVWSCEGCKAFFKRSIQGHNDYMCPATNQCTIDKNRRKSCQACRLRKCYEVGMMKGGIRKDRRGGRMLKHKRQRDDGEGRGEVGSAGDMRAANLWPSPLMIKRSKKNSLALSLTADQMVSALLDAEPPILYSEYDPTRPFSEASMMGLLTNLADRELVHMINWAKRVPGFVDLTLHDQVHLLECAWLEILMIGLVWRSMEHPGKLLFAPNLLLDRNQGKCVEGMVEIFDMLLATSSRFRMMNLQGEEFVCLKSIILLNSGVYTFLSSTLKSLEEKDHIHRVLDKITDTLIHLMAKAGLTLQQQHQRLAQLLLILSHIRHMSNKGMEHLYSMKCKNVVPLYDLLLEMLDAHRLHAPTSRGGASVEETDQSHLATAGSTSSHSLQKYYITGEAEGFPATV

| SMILES | MS (Microsomal Stability) (%) human [1] | CYP inhibition (% of control) 2C9 (CYP2C9) | CYP inhibition (% of control) 1A2 (CYP1A2) | CYP inhibition (% of control) 2C19 (CYP2C19) | MS (Microsomal Stability) (%) rat [3] | Functional Assay, Cpds/Ref 5182 (ERRγ) | other results |
| --- | --- | --- | --- | --- | --- | --- | --- |
| CC(C)N1CCC(c2ccc(/C(=C(/CCCO)c3ccccc3)c3cccc(O)c3)cc2)C1 (racemic) [Compound 22u] | 40.0% | – | – | – | – | – | MS (Microsomal Stability) (%) dog [2]: 10.0% |
| OCCC/C(=C(/c1ccc(C2CCN(C3CC3)CC2)cc1)c1cccc(O)c1)c1ccccc1 [Compound 22r] | 62.0% | >100 % of control | >100 % of control | >100 % of control | – | – | – |
| Cc1ccc(/C(=C(\CCCO)c2ccccc2)c2ccc(C3CCN(C)CC3)cc2)cc1 [Compound 22f] | 97.0% | – | – | – | 80.0% | – | – |
| C[Si](C)(CN1CCCCC1)c1ccc(/C(=C(/CCCO)c2ccccc2)c2ccc(O)cc2)cc1 [Compound 42b] | – | – | – | – | – | – | Permeability Pampa [4]: 0.1 10^−6 cm/s |
| Cc1ccc(/C(=C(\CCCO)c2ccccc2)c2ccc(N3CCN(C(C)C)CC3)cc2)cc1 [Compound 18b] | – | – | – | – | 40.0% | 0.78 | BA [5]: 8.7%; CYP inhibition (% of control) 3A4 (CYP3A4): 53 % of control |
| COc1cccc(-c2cc(=O)c3ccccc3o2)c1N [PD98059, reference compound] | – | – | – | – | – | – | inhibition of the radioactive iodine uptake increase by compound 18a (CAL-62 cells; selective MEK inhibitor, pre-incubated 30 minutes): completely inhibited; inhibition of the relative increase of phosphorylated ERK1 and ERK2 by compound 18a (pERK1/2 in CAL62 cells): completely inhibited |
| CC(C)N1CCN(c2ccc(/C(=C(/CCCO)c3ccccc3)c3ccc(NS(C)(=O)=O)cc3)cc2)CC1 [Compound 27a, (E)-N-(4-(5-hydroxy-1-(4-(4-isopropylpiperazin-1-yl)phenyl)-2-phenylpent-1-en-1-yl)phenyl)methanesulfonamide] | – | – | – | – | 65.0% | – | – |
| CN(C)CCOc1ccc(/C(=C(/CCCO)c2ccccc2)c2ccc(O)cc2)cc1 [GSK5182, reference compound] | – | 72.9 % of control | 84.6 % of control | 78.2 % of control | – | – | BA [5]: 8.4%; CYP inhibition (% of control) 3A4 (CYP3A4): 83 % of control; CYP inhibition (% of control) 2D6 (CYP2D6): 82.3 % of control; radioiodine uptake in the tumor (ATC mouse tumor model): not increased |
| CN1CCN(c2ccc(/C(=C(/CCCO)c3ccccc3)c3ccc(Br)cc3)cc2)CC1 [Compound 18e] | – | 91.3 % of control | >100 % of control | 84.6 % of control | – | 0.89 | AUCINF ([5]; IV 1 mg/kg): 0.06 μMh; AUCall ([5]; IV 1 mg/kg): 0.06 μMh; Vss ([5]; IV 1 mg/kg): 39.1 L/kg; t1/2 ([5]; IV 1 mg/kg): 0.8 h; AUCINF ([5]; PO 10 mg/kg): 0.09 μMh; AUCall ([5]; PO 10 mg/kg): 0.07 μMh; Cmax ([5]; PO 10 mg/kg): 10 nM; Tmax ([5]; PO 10 mg/kg): 2.8 h; BA [5]: 11.5%; IC50 [6]: > 10 µM; IC50 (ERR alpha LBD): > 10 µM; CYP inhibition (% of control) 3A4 (CYP3A4): 84 % of control; Functional Assay at 10 μM (% of control), Cpds (ERRγ): 2.6 % of control; CYP inhibition (% of control) 2D6 (CYP2D6): >100 % of control; Permeability Pampa [4]: 1.11 10^−6 cm/s |
| CC(C)N1CCC(c2ccc(/C(=C(/CCCO)c3ccccc3)c3cccc(O)c3)cc2)CC1 [Compound 22m] | – | – | 97 % of control | >100 % of control | – | – | MS (Microsomal Stability) (%) dog [2]: 55.0% |
| Nc1ccc(/C(=C(\CCCO)c2ccccc2)c2ccc(C3CCN(C4CC4)CC3)cc2)cc1 [Compound 26d] | – | – | >100 % of control | >100 % of control | – | – | Permeability Pampa [4]: 1.04 10^−6 cm/s |
| CC(C)N1CCC(c2ccc(/C(=C(/CCCO)c3ccccc3)c3ccc(O)cc3)cc2)CC1 [Compound 22k] | – | 97 % of control | >100 % of control | >100 % of control | 69.0% | 0.83 | Functional Assay at 10 μM (% of control), Cpds (ERRγ): 0.77 % of control |
| [K+].[O-][Cl+3]([O-])([O-])[O-] [KClO4, reference compound] | – | – | – | – | – | – | block of radioactive iodine uptake increased in compound 18a-treated cells (CAL-62 cells; co-incubated with compound 18a-treated CAL62 cells): completely blocks |
| Cc1ccc(/C(=C(\CCCO)c2ccccc2)c2ccc(C3CNC3)cc2)cc1 [Compound 20d] | 83% | – | – | – | 54% | 0.81 | – |
| OCCC/C(=C(\c1ccc(O)cc1)c1ccc(OCCN2C[C@H]3CNC[C@H]3C2)cc1)c1ccccc1 [Compound 40, 4-((Z)-1-(4-(2-((3aR,6aS)-hexahydropyrrolo[3,4-c]pyrrol-2(1H)-yl)ethoxy)phenyl)-5-hydroxy-2-phenylpent-1-en-1-yl)phenol] | – | – | – | – | 72.0% | 0.96 | – |
| OCCC/C(=C(\c1ccc(O)cc1)c1ccc(N2CCN(C3CCCC3)CC2)cc1)c1ccccc1 [Compound 22n] | – | – | 99 % of control | 83 % of control | – | – | MS (Microsomal Stability) (%) dog [2]: 72.0% |
| CN1CCC[C@H]1COc1ccc(/C(=C(/CCCO)c2ccccc2)c2ccc(O)cc2)cc1 [Compound 6h] | – | 62.8 % of control | 103 % of control | 83.2 % of control | – | – | IC50 (ERR alpha LBD): > 10 µM; CYP inhibition (% of control) 3A4 (CYP3A4): 75.4 % of control; CYP inhibition (% of control) 2D6 (CYP2D6): 90.7 % of control |
| Cl.Cl.OCCC/C(=C(\c1ccc(O)cc1)c1ccc(OCCN2CCNCC2)cc1)c1ccccc1 [Compound 7a, (Z)-4-(5-hydroxy-2-phenyl-1-(4-(2-(piperazin-1-yl)ethoxy)phenyl)pent-1-en-1-yl)phenol 2hydrochloride Salt] | 49.0% | – | – | – | – | 0.86 | – |
| Cc1ccc(/C(=C(\CCCO)c2ccccc2)c2ccc(C3CCNCC3)cc2)cc1 [Compound 20k] | – | – | – | – | 89.0% | – | – |
| N#CC(=C(/N)Sc1ccccc1N)/C(C#N)=C(\N)Sc1ccccc1N [Compound U0126, U0126] | – | – | – | – | – | – | inhibition of the relative increase of phosphorylated ERK1 and ERK2 by compound 18a (pERK1/2 in CAL62 cells): completely inhibited |
| OCCC/C(=C(\c1ccc(O)cc1)c1ccc(OCCN2C[C@H]3C[C@H]3[C@H]2CO)cc1)c1ccccc1 [Compound 38d] | 6.9% | 55.3 % of control | 79.2 % of control | 58.8 % of control | 11.7% | 0.77 | IC50 (ERR alpha LBD): > 10 µM; CYP inhibition (% of control) 3A4 (CYP3A4): 57.6 % of control; MS (Microsomal Stability) (%) mouse [7]: 11.8%; CYP inhibition (% of control) 2D6 (CYP2D6): 54.3 % of control |
| Cc1ccc(/C(=C(\CCCO)c2ccccc2)c2ccc(N3CCNCC3)cc2)cc1 [Compound 20b] | 44% | – | – | – | – | 0.88 | MS (Microsomal Stability) (%) dog [2]: 58% |
| CCN1CCN(c2ccc(/C(=C(/CCCO)c3ccccc3)c3ccc(C)cc3)cc2)CC1 [Compound 18j] | – | 87 % of control | >100 % of control | 74 % of control | – | – | MS (Microsomal Stability) (%) dog [2]: 58.0% |
